Source: patent publication US20230151003A1, “COMPOUNDS AND METHODS OF USE” (Exelixis, Inc., priority 2020, published 2023)
Values belong to the compound of their own block, whether it stands above or below them.

Key:
[1] = target: T1, Human MER (Homo sapiens, UniProt Q12866); experiment: Human MER kinase assay (HTRF KinEase); type: biochemical; details: Table 2 Biological Activities, ATP at Km (40 μM)
T1 construct: Human MER (residues 528-999; CarnaBio, 1 ng/ well); purchased CarnaBio
T1 sequence (Q12866 528-999): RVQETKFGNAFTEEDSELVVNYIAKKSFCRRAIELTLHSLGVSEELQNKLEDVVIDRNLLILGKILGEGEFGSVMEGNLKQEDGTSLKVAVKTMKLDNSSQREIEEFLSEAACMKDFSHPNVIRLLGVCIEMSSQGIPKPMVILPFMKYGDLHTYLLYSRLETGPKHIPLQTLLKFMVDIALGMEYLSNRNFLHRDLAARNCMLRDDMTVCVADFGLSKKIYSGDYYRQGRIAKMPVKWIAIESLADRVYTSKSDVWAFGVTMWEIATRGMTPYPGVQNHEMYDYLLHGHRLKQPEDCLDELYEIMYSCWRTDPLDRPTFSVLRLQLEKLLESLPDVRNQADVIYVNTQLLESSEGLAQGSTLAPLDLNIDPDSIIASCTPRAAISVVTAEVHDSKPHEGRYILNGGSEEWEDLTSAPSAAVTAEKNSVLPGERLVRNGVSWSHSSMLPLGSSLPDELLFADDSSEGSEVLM
Method: (§1) Kinase activity and compound inhibition were investigated using the HTRF® KinEase assay (Cisbio Cat #62TKOPEB) per manufacturer's instructions. In short, compounds were delivered in 300 nL volumes at 10 different concentrations in DMSO (3% final) to empty 384-well assay plates (Corning cat #3824). A mixture of enzyme, 1 μM biotynlated peptide substrate, and buffer in 10 μL volume was added. The assay was started upon the addition of ATP (at Km). The 10 μL reaction was incubated at room temperature. The reaction was stopped upon the addition of detection buffer containing streptavidin-XL665 (5 μL) and TK antibody-Eu3+ (5 μL). After a 60 min incubation at room temperature, the fluorescence at 665 nm and 620 nm was read on an Envision microplate reader (Perkin Elmer). Kinase activity normalized to DMSO (100% activity) and reference compound at 1 μM and (0% activity) was calculated using the fluorescence ratio […]. IC50 values were calculated by nonlinear regression analysis using a 4-parameter logistic curve fit in ActivityBase XE (IDBS).
Human MER (residues 528-999; CarnaBio, 1 ng/ well) was incubated with enzymatic buffer (Cisbio) supplemented with 5 mM MgCl2 and 1 mM DTT. The mixture was added to the pre-plated compounds. The reaction was initiated upon addition of ATP at Km (40 μM). The reaction was incubated at room temperature for 60 min and stopped upon the addition of SA-XL665 and TK-antibody both diluted in EDTA-containing kinase detection buffer (Cisbio). The kinase activity was calculated as stated above and the IC50 values were reported.

[2] = target: KDR (Homo sapiens, UniProt P35968); experiment: KDR autophosphorylation ELISA in HUVEC cells; type: cell-based; set-up: endogenous in cells; host or cells: HUVEC (Lonza #C2519A); details: Table 3 Cellular Activities, VEGF165-stimulated, phospho-KDR ELISA
Sequence of KDR (P35968 20-1356): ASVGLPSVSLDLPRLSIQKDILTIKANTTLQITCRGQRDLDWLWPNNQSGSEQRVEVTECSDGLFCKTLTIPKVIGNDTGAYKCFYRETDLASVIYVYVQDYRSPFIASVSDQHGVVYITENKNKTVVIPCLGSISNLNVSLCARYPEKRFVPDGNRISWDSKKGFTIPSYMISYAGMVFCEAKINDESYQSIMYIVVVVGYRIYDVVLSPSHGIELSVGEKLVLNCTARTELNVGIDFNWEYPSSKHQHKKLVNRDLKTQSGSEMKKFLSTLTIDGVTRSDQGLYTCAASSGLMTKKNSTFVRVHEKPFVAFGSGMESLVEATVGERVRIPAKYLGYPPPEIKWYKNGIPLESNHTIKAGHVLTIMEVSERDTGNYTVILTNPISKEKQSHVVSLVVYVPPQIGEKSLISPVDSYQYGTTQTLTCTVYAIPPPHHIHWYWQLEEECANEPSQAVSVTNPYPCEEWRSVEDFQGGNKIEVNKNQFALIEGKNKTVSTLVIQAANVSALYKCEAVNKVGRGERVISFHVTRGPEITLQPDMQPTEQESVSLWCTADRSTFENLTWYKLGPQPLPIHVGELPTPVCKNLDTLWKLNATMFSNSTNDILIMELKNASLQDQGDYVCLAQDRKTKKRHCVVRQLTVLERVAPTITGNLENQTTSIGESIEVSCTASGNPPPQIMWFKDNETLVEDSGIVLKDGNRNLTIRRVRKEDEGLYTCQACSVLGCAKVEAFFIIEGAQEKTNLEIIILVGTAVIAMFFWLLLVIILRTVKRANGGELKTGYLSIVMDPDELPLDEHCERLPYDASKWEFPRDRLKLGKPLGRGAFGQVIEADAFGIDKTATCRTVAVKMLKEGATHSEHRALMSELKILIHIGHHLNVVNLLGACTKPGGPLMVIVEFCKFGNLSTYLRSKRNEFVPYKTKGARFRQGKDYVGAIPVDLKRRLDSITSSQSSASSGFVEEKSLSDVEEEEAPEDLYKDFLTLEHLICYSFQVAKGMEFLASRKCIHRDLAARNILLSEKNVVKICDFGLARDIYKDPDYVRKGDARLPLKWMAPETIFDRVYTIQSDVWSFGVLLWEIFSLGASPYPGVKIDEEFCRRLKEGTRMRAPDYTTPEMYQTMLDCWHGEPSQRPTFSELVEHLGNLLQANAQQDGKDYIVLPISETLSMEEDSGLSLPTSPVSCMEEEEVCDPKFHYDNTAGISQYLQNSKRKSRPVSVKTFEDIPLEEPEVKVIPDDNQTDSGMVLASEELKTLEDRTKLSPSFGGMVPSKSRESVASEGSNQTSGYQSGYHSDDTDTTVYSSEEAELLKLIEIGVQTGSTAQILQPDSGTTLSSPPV
Method in brief: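 Phospho-KDR levels in lysates were measured by ELISA and referenced to stimulated-vehicle (100%) and unstimulated (0%) wells, IC50 from 4-parameter logistic fit. HUVEC, starved 24 h in serum-free medium, received an 8-point compound series (0.3% DMSO) for 1 h before a 5 min 100 ng/mL VEGF165 challenge.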

[3] = target: Met (Homo sapiens, UniProt P08581); experiment: Human MET kinase assay (HTRF KinEase); type: biochemical; set-up: Human MET (residues 956-1390; CarnaBio, 0.1 ng/ well); purchased CarnaBio; details: Table 2 Biological Activities, ATP at Km (3.0 μM), read-out: c-Met IC50
Sequence of Met (P08581 956-1390): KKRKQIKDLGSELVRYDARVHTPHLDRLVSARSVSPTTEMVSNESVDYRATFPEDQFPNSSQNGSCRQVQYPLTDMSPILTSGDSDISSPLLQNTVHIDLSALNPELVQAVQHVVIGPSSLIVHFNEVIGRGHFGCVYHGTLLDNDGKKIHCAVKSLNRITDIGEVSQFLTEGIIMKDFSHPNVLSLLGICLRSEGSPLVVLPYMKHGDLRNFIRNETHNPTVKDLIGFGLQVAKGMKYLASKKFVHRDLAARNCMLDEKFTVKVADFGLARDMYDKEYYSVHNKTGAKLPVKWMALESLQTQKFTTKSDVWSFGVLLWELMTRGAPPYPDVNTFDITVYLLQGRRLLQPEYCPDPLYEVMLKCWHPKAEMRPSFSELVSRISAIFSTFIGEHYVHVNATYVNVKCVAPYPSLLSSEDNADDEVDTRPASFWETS
Method: as §1
Human MET (residues 956-1390; CarnaBio, 0.1 ng/ well) was incubated with enzymatic buffer (Cisbio) supplemented with 5 mM MgCl2, 1 mM DTT and 1 mM MnCl2. The mixture was added to the pre-plated compounds. The reaction was initiated upon addition of ATP at Km (3.0 μM). The reaction was incubated at room temperature for 40 min and stopped upon the addition of SA-XL665 and TK-antibody both diluted in EDTA-containing kinase detection buffer (Cisbio). The kinase activity was calculated as stated above and the IC50 values were reported.

SMILES: COc1cc2nccc(Oc3ccc(NC(=O)c4c(C)n(C)cc(-c5ccc(F)cn5)c4=O)cc3F)c2nc1OC [Compound 71, N-[4-[(6,7-Dimethoxy-1,5-naphthyridin-4-yl)oxy]-3-fluorophenyl]-5-(5-fluoropyridin-2-yl)-1,2-dimethyl-4-oxopyridine-3-carboxamide]
IC50 [1]: ≤ 100 nM
IC50 [2]: 300 to 1000 nM

SMILES: COc1cc2nccc(Oc3ccc(NC(=O)c4cc(C(C)=O)c(C)n(-c5ccc(F)cn5)c4=O)cc3F)c2nc1OC [Compound 59, 5-Acetyl-N-[4-[(6,7-dimethoxy-1,5-naphthyridin-4-yl)oxy]-3-fluorophenyl]-1-(5-fluoropyridin-2-yl)-6-methyl-2-oxopyridine-3-carboxamide]
IC50 [1]: ≤ 100 nM
IC50 [3]: ≤ 100 nM
IC50 [2]: 100 to 300 nM

SMILES: COCCOc1cc2nccc(Oc3ccc(NC(=O)c4ccc(C)n(-c5ccc(F)cn5)c4=O)cc3F)c2nc1OC [Compound 50, N-[3-Fluoro-4-[[6-methoxy-7-(2-methoxyethoxy)-1,5-naphthyridin-4-yl]oxy]phenyl]-1-(5-fluoropyridin-2-yl)-6-methyl-2-oxopyridine-3-carboxamide]
IC50 [1]: ≤ 100 nM
IC50 [3]: ≤ 100 nM
IC50 [2]: ≤ 100 nM

SMILES: COc1cc2nccc(Oc3ccc(NC(=O)c4c(C)ncc(-c5ccc(F)cn5)c4O)cc3F)c2nc1OC [Compound 68, N-[4-[(6,7-Dimethoxy-1,5-naphthyridin-4-yl)oxy]-3-fluorophenyl]-5-(5-fluoropyridin-2-yl)-4-hydroxy-2-methylpyridine-3-carboxamide]
IC50 [1]: ≤ 100 nM
IC50 [3]: ≤ 100 nM
IC50 [2]: ≤ 100 nM

SMILES: Cc1ccc(C(=O)Nc2ccc(Oc3ccnc4cccnc34)c(F)c2)c(=O)n1-c1ccc(F)cn1 [Compound 48, N-[3-Fluoro-4-(1,5-naphthyridin-4-yloxy)phenyl]-1-(5-fluoropyridin-2-yl)-6-methyl-2-oxopyridine-3-carboxamide]
IC50 [1]: ≤ 100 nM
IC50 [3]: ≤ 100 nM
IC50 [2]: 300 to 1000 nM

SMILES: COc1cc2nccc(Oc3ccc(NC(=O)c4ccc(C)n(-c5ncc(F)cc5C)c4=O)cc3F)c2nc1OC [Compound 51, N-[4-[(6,7-Dimethoxy-1,5-naphthyridin-4-yl)oxy]-3-fluorophenyl]-1-(5-fluoro-3-methylpyridin-2-yl)-6-methyl-2-oxopyridine-3-carboxamide]
IC50 [1]: ≤ 100 nM
IC50 [3]: ≤ 100 nM
IC50 [2]: ≤ 100 nM

SMILES: COc1ccc2nccc(Oc3ccc(NC(=O)c4ccc(C)n(-c5ncc(F)cc5C)c4=O)cc3F)c2n1 [Compound 53, N-[3-Fluoro-4-[(6-methoxy-1,5-naphthyridin-4-yl)oxy]phenyl]-1-(5-fluoro-3-methylpyridin-2-yl)-6-methyl-2-oxopyridine-3-carboxamide]
IC50 [1]: ≤ 100 nM
IC50 [3]: ≤ 100 nM
IC50 [2]: ≤ 100 nM

SMILES: COc1cc2nccc(Oc3ccc(NC(=O)c4c(C)ncc(-c5ccccn5)c4O)cc3F)c2nc1OC [Compound 69, N-[4-[(6,7-Dimethoxy-1,5-naphthyridin-4-yl)oxy]-3-fluorophenyl]-4-hydroxy-2-methyl-5-pyridin-2-ylpyridine-3-carboxamide]
IC50 [1]: ≤ 100 nM
IC50 [3]: ≤ 100 nM
IC50 [2]: ≤ 100 nM

SMILES: COc1cc2nccc(Oc3ccc(NC(=O)c4c(C)ccn(-c5ccc(F)cn5)c4=O)cc3F)c2nc1OC [Compound 41, N-[4-[(6,7-Dimethoxy-1,5-naphthyridin-4-yl)oxy]-3-fluorophenyl]-1-(5-fluoropyridin-2-yl)-4-methyl-2-oxopyridine-3-carboxamide]
IC50 [1]: ≤ 100 nM
IC50 [3]: ≤ 100 nM
IC50 [2]: ≤ 100 nM

SMILES: COc1cnc2c(Oc3ccc(NC(=O)c4ccc(C)n(-c5ncc(F)cc5C)c4=O)cc3F)ccnc2c1 [Compound 52, N-[3-Fluoro-4-[(7-methoxy-1,5-naphthyridin-4-yl)oxy]phenyl]-1-(5-fluoro-3-methylpyridin-2-yl)-6-methyl-2-oxopyridine-3-carboxamide]
IC50 [1]: ≤ 100 nM
IC50 [3]: ≤ 100 nM
IC50 [2]: ≤ 100 nM

More lines, now with the values ahead:

IC50 [3]: ≤ 100 nM
IC50 [2]: ≤ 100 nM
SMILES: COCc1nc(C)c(-c2ccc(F)cn2)c(O)c1C(=O)Nc1ccc(Oc2ccnc3cc(OC)c(OC)nc23)c(F)c1 [Compound 214, N-[4-[(6,7-Dimethoxy-1,5-naphthyridin-4-yl)oxy]-3-fluorophenyl]-5-(5-fluoropyridin-2-yl)-4-hydroxy-2-(methoxymethyl)-6-methylpyridine-3-carboxamid]

IC50 [3]: ≤ 100 nM
IC50 [2]: ≤ 100 nM
SMILES: COc1cc2nccc(Oc3ccc(NC(=O)c4c(C)nc(C)c(-c5ccc(F)cn5)c4O)cc3)c2nc1OC [Compound 216, N-[4-[(6,7-Dimethoxy-1,5-naphthyridin-4-yl)oxy]phenyl]-5-(5-fluoropyridin-2-yl)-4-hydroxy-2,6-dimethylpyridine-3-carboxamide]

IC50 [1]: ≤ 100 nM
IC50 [3]: ≤ 100 nM
IC50 [2]: ≤ 100 nM
SMILES: COc1cc2nccc(Oc3ccc(NC(=O)c4cnc(C)c(-c5ccc(F)cn5)c4O)cc3F)c2nc1OC [Compound 85, N-[4-[(6,7-Dimethoxy-1,5-naphthyridin-4-yl)oxy]-3-fluorophenyl]-5-(5-fluoropyridin-2-yl)-4-hydroxy-6-methylpyridine-3-carboxamide]

IC50 [3]: ≤ 100 nM
IC50 [2]: ≤ 100 nM
SMILES: COc1cc2nccc(Oc3ccc(NC(=O)c4ccc(C)n(-c5ccncc5F)c4=O)cc3F)c2nc1OC [Compound 220, N-[4-[(6,7-Dimethoxy-1,5-naphthyridin-4-yl)oxy]-3-fluorophenyl]-1-(3-fluoropyridin-4-yl)-6-methyl-2-oxopyridine-3-carboxamide]

IC50 [1]: 100 to 300 nM
IC50 [3]: 300 to 1000 nM
IC50 [2]: 300 to 1000 nM
SMILES: COc1cc2nccc(Oc3ccc(NC(=O)c4c(C)n(C)cc(-c5ccc(F)cn5)c4=O)cc3)c2nc1OC [Compound 72, N-[4-[(6,7-Dimethoxy-1,5-naphthyridin-4-yl)oxy]phenyl]-5-(5-fluoropyridin-2-yl)-1,2-dimethyl-4-oxopyridine-3-carboxamide]

IC50 [3]: ≤ 100 nM
IC50 [2]: ≤ 100 nM
SMILES: COc1cc2nccc(Oc3ccc(NC(=O)c4c(C)nc(C)c(-c5ccc(F)cn5)c4O)cc3F)c2nc1OC [Compound 218, N-[4-[(6,7-Dimethoxy-1,5-naphthyridin-4-yl)oxy]-3-fluorophenyl]-5-(5-fluoropyridin-2-yl)-4-hydroxy-2,6-dimethylpyridine-3-carboxamide]

IC50 [3]: ≤ 100 nM
IC50 [2]: ≤ 100 nM
SMILES: COc1cc2nccc(Oc3ccc(NC(=O)c4ccc(C)n(-c5ccncc5)c4=O)cc3F)c2nc1OC [Compound 221, N-[4-[(6,7-Dimethoxy-1,5-naphthyridin-4-yl)oxy]-3-fluorophenyl]-6-methyl-2-oxo-1-pyridin-4-ylpyridine-3-carboxamid]

IC50 [2]: 300 to 1000 nM
SMILES: COc1cc2nccc(Oc3ccc(NC(=O)c4c5n(cc(-c6cc(C)cs6)c4=O)CCOC5)cc3)c2nc1OC [Compound 303, N-[4-[(6,7-Dimethoxy-1,5-naphthyridin-4-yl)oxy]phenyl]-7-(4-methylthiophen-2-yl)-8-oxo-3,4-dihydro-1H-pyrido[2,1-c][1,4]oxazine-9-carboxamide]

IC50 [3]: ≤ 100 nM
IC50 [2]: ≤ 100 nM
SMILES: COc1cnc2c(Oc3ccc(NC(=O)c4c(C)nc(C)c(-c5ccc(F)cn5)c4O)cc3F)ccnc2c1 [Compound 217, N-[3-Fluoro-4-[(7-methoxy-1,5-naphthyridin-4-yl)oxy]phenyl]-5-(5-fluoropyridin-2-yl)-4-hydroxy-2,6-dimethylpyridine-3-carboxamide]
